For one molecule, inhibition results are on record in US20070191227A1, “Use of basic amino acids in copper-containing fungicidal formulations” (priority 2003, published 2007).

The subject of this experiment is Septoria tritici. As to the kind of experiment: Growth assay with Septoria tritici as indicator fungus (photometric). It is filed as cell-based. The settings on record: Zymoseptoria tritici; active ingredient concentration 1 ppm, individual active ingredient. Here is the method: Efficacy of Formulations According to the Invention Comprising Copper and a Further Fungicidal Active Ingredient Against Septoria tritici.
A growth assay was carried out with Septoria tritici as indicator fungus. The fungal growth was measured photometrically by the increase in absorption or light scattering as a function of mycelium density. The data were converted into percent growth inhibition, the absorption of the untreated controls being defined as 0% inhibition and that of a killed spore suspension as reference as 100% inhibition.
The expected efficacies of combinations of active ingredients were determined using Colby's formula (Colby, S. R. “Calculating synergistic and antagonistic responses of herbicide combinations”, Weeds, 15, pp. 20-22, 1967) and compared with the observed efficacies.
Colby's formula: E=x+y−x·y/100 • E expected efficacy, expressed in % of the untreated control, when using the mixture of the active ingredients A and B at the concentrations a and b • x efficacy, expressed in % of the untreated control, when using the active ingredient A at the concentration a
y efficacy, expressed in % of the untreated control, when using the active ingredient B at the concentration b

Structures are written as SMILES.

For orientation: inhibition means the relative decrease from the control value, in per cent. For the molecule `COC(=O)N(OC)c1ccccc1COc1ccn(-c2ccc(Cl)cc2)n1` [II, Pyraclostrobin], the inhibition at 1 ppm is 73%.
